For one experiment, the system named is γH2AX. Nature of the experiment: γH2AX immunofluorescence (human RPE, THP1 cells). Type of experiment: cell-based. The procedure:
Immunofluorescence Staining: 16,500 adherent cells/cm^2 were plated on a gelatin coated 8-chamber slide (VWR, Catalogue #62407-296) and treated as indicated. Media was removed and cells were washed with 1×PBS with Ca^2+/Mg^2+ and fixed with 4% PFA for 20 minutes. Fixed cells were permeabilized with PBS+0.1% Triton-X and washed 3 times with PBS+0.1% Tween20. After treatment as indicated, non-adherent THP1 cells were collected by centrifugation, washed in cold PBS and fixed in PFA. Post-fixation, they were washed with PBS, spotted on gelatin coated “PTFE” Printed Slides (Electron Microscopy Sciences, Cat #63424-06), and air-dried. For γH2AX staining, permeabilized cells were blocked in Serum-free DAKO Protein Block (Agilent, Catalogue #X0909) for 1 hr at room temperature. Cells were incubated in primary antibody (γH2AX, 1:500; anti-HA, 1:100; Table 1) in DAKO antibody diluent at 4° C. overnight on a rocker platform. U2OS-STING cells undergoing Rad51 staining were first fixed in methanol for 20 minutes in −20° C., blocked for 1 hr with donkey block (2% normal donkey serum, 1% BSA, 0.1% Triton X 100, 0.05% Tween20, 0.05% Sodium Azide in PBS), then finally incubated in an anti-Rad51 antibody overnight at 4° C. (Bio-academia Cat #70-001, 1:6000 in 5% milk in TBST). For RPA70 staining, cells were fixed in 4% PFA at room temperature for 20 minutes and blocked in Cell Signaling blocking buffer (1×PBS/5% normal donkey serum/0.3% Triton™ X-100) for 1 hr in room temperature then incubated in an RPA70 antibody (Cell Signaling Cat #2267, 1:50 in blocking buffer) overnight at 4° C. Primary antibody was washed 3 times and incubated with secondary antibodies (Invitrogen, Alexa 555, 488) for 1 hr at room temperature. Coverslips were mounted on the cells with ProLong™ Gold Antifade mounting media with DAPI (Thermofisher, Catalogue #P36935). All images were obtained by confocal microscopy (Nikon, C2).

Experiment [1] relates to HEK293-ACE reporter cells. Nature of the experiment: ACE CRISPR/Cas9 reporter system. Type of experiment: cell-based, human. The settings on record: cGAMP transfection; interferon β 50 ng/ml.
Experimental: ACE CRISPR/Cas9 reporter system: The ACE reporter (Addgene #109428) described previously (Aird et al., 2018; St. Martin et al., 2018) was integrated in HEK293 cells using lentiviral transduction. ACE reporter integrated cells (GFP+) were sorted in a Becton Dickinson Influx Cell Sorter and propagated. […] 72 hours post RNP transfection, cells were trypsinized, collected, and analyzed with an Attune NxT flow cytometer (Thermofisher). To quantify the HDR DNA repair events, ˜10,000-30,000 cells were acquired on an Attune NxT cytometer and analyzed using FCS Express software. Single cell events were determined by gating on the area against the width of the forward scatter pulse signal. Debris removal was performed by excluding events with very low forward and side scatter. For determining % of mCherry positive cells we established positive and negative populations using mock transfections as negative controls and mCherry transfected samples as Fluorescence Minus One controls.
Another experiment deals with cell cycle progression. Put plainly: Cell cycle analysis by flow cytometry (BrdU, propidium iodide). Type of experiment: cell-based, human. How it is done: Cells were washed with cold PBS and resuspended in 0.5 ml PBS to achieve a single cell suspension. Cells were fixed in a tube containing 4.5 ml 70% ethanol kept at 4° C. overnight. Cells were collected by centrifugation at 500 g for 5 minutes and washed twice with PBS. Washed cells were then stained with 1 ml of freshly prepared staining solution containing propidium iodide (10 μg/ml), DNase-free RNaseA (100 μg/ml), and 0.1% (v/v) Triton X-100 before being subjected to flow cytometry measurement. To determine percentage of cell population in various cell cycle stage, ˜10,000-30,000 cells were acquired on an Attune NxT cytometer and analyzed using FCS Express software. Cell cycle analysis was performed on propidium iodide stained cells and single cell events were determined by gating on the area against the width of the propidium iodide pulse signal. DNA cell cycle modeling and fit was performed using the Multicycle AV plugin (Phoenix Flow Systems).
Cells were fixed and stained to detect BrdU incorporation by flow cytometry following the manufacturer's protocol (FITC BrdU Flow Kit, BD Biosciences, Cat #559619).
Background: In flow cytometry, cells or beads pass a laser one at a time.

In the next experiment the test system is DDR signaling. Nature of the experiment: DDR signaling immunoblot in STING-reconstituted U2OS cells. Type of experiment: cell-based, human. The settings on record: cGAMP 18 hours. How it is done:
Generation of U2OS-STING cells: WT U2OS cells were reconstituted with STING by integrating LentiORF-TMEM173 (CCSB-Broad Lentiviral Expression Collection, TMEM173, Cat #ccsbBroad304_05465) via lentiviral transduction of U2OS cells as described above. Exposure to blasticidin (10 μg/ml) for 14 days facilitated the selection of STING integrated cells whose protein over-expression profiles were assessed by immunoblotting.
For orientation: In western blotting, separated proteins are transferred to a membrane and probed.

For another experiment, the system named is HEK293-TrLR cells. Nature of the experiment: HDR and NHEJ assay using Traffic Light Reporter. Type of experiment: cell-based, human. The procedure:
TrLR-integrated HEK293 cells were selected through exposure to 5 μg/ml puromycin for 2 weeks. […] 8 hours following this procedure, cells were transfected with pCVL SFFV d14GFP Donor (Addgene Cat #31475), pCBASceI (Addgene Cat #26477)), or Donor+SceI using Lipofectamine 3000. 72 hours post-transfection, cells were trypsinized, collected, and analyzed with an Attune NxT flow cytometer (Thermofisher). To quantify the DNA repair events, ˜10,000-30,000 cells were acquired on an Attune NxT cytometer and analyzed using FCS Express software. Single cell events were determined by gating on the area against the width of the forward scatter pulse signal. Debris removal was performed by excluding events with very low forward and side scatter. For determining % of GFP and mCherry positive cells we established positive and negative populations using mock transfections as negative controls and GFP or mCherry transfected samples as Fluorescence Minus One controls.

For the compound `Nc1nc2c(ncn2[C@@H]2O[C@@H]3COP(=O)(O)O[C@H]4[C@@H](O)[C@H](n5cnc6c(N)ncnc65)O[C@@H]4COP(=O)(O)O[C@@H]2[C@@H]3O)c(=O)[nH]1` [cGAMP, cyclic guanosine monophosphate-adenosine monophosphate], the “cGAMP-induced pan-nuclear γH2AX staining” value with γH2AX (WT, STING−/−, shIFNAR THP1 cells, 16 hours) was “suppressed in STING^−/− but not in sh-IFNAR THP1 cells”. In addition, the γH2AX staining pattern entry in the experiment on γH2AX (human RPE cells, doxorubicin 2 hours, cGAMP or HT-DNA 6 hours) is on record as “γH2AX marked by pan-nuclear staining”. Besides, in experiment [1], the “HDR-mediated CRISPR editing (mCherry positive cells)” value is listed as “significantly dampened HDR-mediated CRISPR editing”. The “dependence of cGAMP-induced G1 cell cycle arrest on STING, TBK1, IFNAR1, STAT2” value in the experiment on cell cycle progression (STING−/−, shTBK1, shIFNAR1, shSTAT2 THP1) was “reliant on the former two signaling proteins (i.e. STING and TBK1), but occurs independently of IFNAR and STAT2”. For the same compound, the “G1 arrest in unperturbed and PARP-inhibited cells” value with cell cycle progression (WT THP1, 10 μM Rucaparib or vehicle, 24 hours) is listed as “promotes G1 arrest in both unperturbed as well as PARP-inhibited cells”. In the experiment with cell cycle progression (WT THP1, BrdU, 24 hours), the “number of cells in the S-phase” value was “decreased the number of cells in the S-phase” and the “proportion of cells in the G1 phase” value is listed as “substantially increased the proportion of cells arrested in the G1 phase”. In addition, the “cGAMP-induced G1 arrest after p53 knockdown” value in the experiment on cell cycle progression (shP53 U2OS-STING cells, 24 hours) is reported as “abrogated the cGAMP-induced G1 arrest”. Also, the “DDR signaling (γH2AX, pCHK2)” value in the experiment with DDR signaling is recorded as “exhibiting biochemical evidence of DDR signaling”. The “HDR suppression by cGAMP in rucaparib-pretreated cells” value in the experiment with HEK293-TrLR cells (1 μM Rucaparib) was “ineffective at HDR suppression in cells pretreated with rucaparib”. Also, the “HDR in ATM inhibitor treated cells, mock vs. cGAMP” value in the experiment on HEK293-TrLR cells (25 μM KU-55933) was “still suppressed HDR”. In addition, the HDR frequency entry in the experiment with HEK293-TrLR cells (I-SceI with donor, 72 hours) is “significantly reduced the prevalence of HDR”. The NHEJ frequency entry in the experiment with HEK293-TrLR cells (I-SceI, 72 hours) is given as “unaffected in either case”.

Source of the values: patent US20240335465A1 (University of Virginia Patent Foundation, priority 2021, published 2024).
